Activity calls are given as the source filed them.
Assays:
[1] = target: T1, Alkaline phosphatase, tissue-nonspecific isozyme (Homo sapiens, UniProt P05186); test: potency against alkaline phosphatase TNAP – biochemical, luminescent, dose response, SAR follow-up (AID 1056)
T1 sequence (P05186 whole entry): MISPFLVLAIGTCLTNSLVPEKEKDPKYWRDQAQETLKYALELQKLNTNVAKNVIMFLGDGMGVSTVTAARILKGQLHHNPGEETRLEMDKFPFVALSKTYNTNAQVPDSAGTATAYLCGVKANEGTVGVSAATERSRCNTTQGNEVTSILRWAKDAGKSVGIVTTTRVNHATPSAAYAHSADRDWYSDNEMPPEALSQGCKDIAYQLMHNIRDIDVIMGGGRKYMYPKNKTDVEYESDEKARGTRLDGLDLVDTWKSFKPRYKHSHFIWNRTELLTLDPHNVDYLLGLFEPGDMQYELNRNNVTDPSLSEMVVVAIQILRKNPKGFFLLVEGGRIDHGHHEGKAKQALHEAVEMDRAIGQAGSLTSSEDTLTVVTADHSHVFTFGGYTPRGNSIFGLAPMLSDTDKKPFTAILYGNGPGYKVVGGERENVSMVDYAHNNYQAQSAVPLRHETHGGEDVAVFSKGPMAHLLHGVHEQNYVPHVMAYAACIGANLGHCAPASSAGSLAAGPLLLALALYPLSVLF

[2] = target: Alkaline phosphatase, placental type (Homo sapiens, UniProt P05187); test: human placental alkaline phosphatase inhibition – biochemical, luminescence, confirmation (AID 1512); type: functional
[3] = target: Glyceraldehyde-3-phosphate dehydrogenase (Homo sapiens, UniProt P04406)
[4] = HEK-293T viability loss after treatment – luminescence, T-cell screen hits, cytotoxicity control for TCR NF-kB inhibitor project, dose response (AID 489026); type: functional, cell-based;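 also: cells exposed to compound about 14 hours before the viability readout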
[5] = target: T2, E3 ubiquitin-protein ligase XIAP (Homo sapiens, UniProt P98170); test: Counter Screen using XIAP-Bir3 for Chemical Antagonists of Bir1/2 domains of IAP-family anti-apoptotic proteins. [Related pubchem assays (depositor defined):AID1018, AID1449, AID1514, AID1638, AID1749, AID1750, AID488957, AID488963]
[6] = target: T2, E3 ubiquitin-protein ligase XIAP; test: small molecules displacing peptide from XIAP – biochemical, IAP family, fluorescence polarization (AID 1018); type: functional
[7] = DRD fibroblast viability loss – cell-based, non-viral oncogenic, luminescence, dose response (AID 1934); type: functional; settings: Homo sapiens
BJ [8] = test: BJ-TERT fibroblast viability loss – cell-based, RAS-independent, luminescence, dose response (AID 1933); type: functional; settings: Homo sapiens
[9] = viability of PTEN-deleted HCT116 cells – cell-based, HCT116 PTEN knockout, dose response (AID 1047); type: functional;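 also: HCT116 colon tumor cells with PTEN knocked out; cells exposed to compound for 60 hours before readout; potency for loss of cell viability measured by luminescence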
Protein RecA = target: T3, Protein RecA (Mycobacterium tuberculosis, UniProt P9WHJ3); test: Fluorescence Cell-Free Homogeneous Dose Retest to Identify Inhibitors of RecA-Intein Splicing Activity. [Related pubchem assays (depositor defined):AID2097, AID2223, AID489010, AID492950]; type: functional
T3 sequence (P9WHJ3 whole entry): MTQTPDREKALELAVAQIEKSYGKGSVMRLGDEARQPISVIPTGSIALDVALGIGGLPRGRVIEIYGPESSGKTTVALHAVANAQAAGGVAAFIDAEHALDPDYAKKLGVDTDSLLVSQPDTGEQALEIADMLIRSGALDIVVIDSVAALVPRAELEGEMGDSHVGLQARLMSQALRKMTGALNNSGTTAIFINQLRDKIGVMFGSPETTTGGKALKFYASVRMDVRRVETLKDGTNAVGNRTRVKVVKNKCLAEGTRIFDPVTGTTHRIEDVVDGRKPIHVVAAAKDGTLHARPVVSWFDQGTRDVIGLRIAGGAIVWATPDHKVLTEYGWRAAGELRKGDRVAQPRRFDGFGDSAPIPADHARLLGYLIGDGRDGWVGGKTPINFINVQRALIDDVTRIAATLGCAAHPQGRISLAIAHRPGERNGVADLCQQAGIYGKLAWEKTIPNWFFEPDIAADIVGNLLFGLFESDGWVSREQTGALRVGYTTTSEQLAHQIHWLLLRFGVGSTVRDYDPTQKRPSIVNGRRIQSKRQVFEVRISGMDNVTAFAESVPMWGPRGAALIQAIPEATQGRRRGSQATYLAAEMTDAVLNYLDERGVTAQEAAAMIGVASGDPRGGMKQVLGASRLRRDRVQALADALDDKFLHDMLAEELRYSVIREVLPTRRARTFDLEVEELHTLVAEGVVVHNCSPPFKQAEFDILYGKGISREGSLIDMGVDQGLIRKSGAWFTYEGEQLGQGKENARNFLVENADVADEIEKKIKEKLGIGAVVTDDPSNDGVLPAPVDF

[10] = Trypanosoma cruzi growth suppression in host cells – NIH3T3 host cells, beta-gal luminescence, confirmation (AID 2044); type: functional, cell-based;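 also: intracellular parasites grown in NIH/3T3 mouse fibroblasts as host cells; luminescent beta-galactosidase reporter signal from transgenic T. cruzi replicating inside host cells; inhibitors lower the luminescence signal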
[11] = target: G-protein coupled receptor 55 (Homo sapiens, UniProt Q9Y2T6); test: selective activators of receptor GPR55 – imaging, U2OS cells, beta-arrestin-GFP redistribution, primary screen (AID 1961); type: functional
[12] = NIH3T3 cell viability loss – ATP luminescence, mouse fibroblasts, counter-screen, dose response (AID 2010); type: functional, cell-based;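 also: cells exposed to compound for about 90 hours before reading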
Integrin alpha-4 = Integrin alpha-4 (Homo sapiens, UniProt P13612); test: allosteric modulators of alpha4 integrin VLA-4 – cell-based, LIBS antibody binding, flow cytometry, SAR follow-up (AID 488791); type: functional
[13] = target: T4, Replicative DNA helicase DnaB (Mycobacterium tuberculosis, UniProt P9WMR3); test: DnaB intein splicing inhibitors, dose response, biochemical, cell-free fluorescence (AID 449749); type: functional
T4 sequence (P9WMR3 whole entry): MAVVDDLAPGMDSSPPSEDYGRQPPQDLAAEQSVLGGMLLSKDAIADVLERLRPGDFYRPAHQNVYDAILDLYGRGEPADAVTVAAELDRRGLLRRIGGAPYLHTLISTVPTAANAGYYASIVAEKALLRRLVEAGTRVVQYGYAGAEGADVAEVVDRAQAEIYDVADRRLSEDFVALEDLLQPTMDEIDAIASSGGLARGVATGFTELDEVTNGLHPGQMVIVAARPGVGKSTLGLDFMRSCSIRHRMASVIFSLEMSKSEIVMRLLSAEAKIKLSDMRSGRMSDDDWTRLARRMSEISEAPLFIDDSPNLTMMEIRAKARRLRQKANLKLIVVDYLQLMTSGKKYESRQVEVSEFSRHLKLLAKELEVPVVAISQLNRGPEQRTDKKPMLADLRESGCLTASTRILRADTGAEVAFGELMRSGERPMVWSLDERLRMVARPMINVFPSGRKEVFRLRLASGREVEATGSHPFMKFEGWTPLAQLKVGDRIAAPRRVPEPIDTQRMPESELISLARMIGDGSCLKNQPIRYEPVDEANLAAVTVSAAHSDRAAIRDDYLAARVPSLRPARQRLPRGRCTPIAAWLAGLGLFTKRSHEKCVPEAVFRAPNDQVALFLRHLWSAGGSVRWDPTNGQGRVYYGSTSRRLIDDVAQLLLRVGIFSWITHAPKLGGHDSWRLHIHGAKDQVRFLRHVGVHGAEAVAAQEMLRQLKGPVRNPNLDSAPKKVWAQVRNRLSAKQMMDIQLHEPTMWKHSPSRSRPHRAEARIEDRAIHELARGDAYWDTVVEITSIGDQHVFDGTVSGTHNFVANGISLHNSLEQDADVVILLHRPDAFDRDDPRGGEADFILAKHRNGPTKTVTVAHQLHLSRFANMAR

[14] = viability of HCT116 lacking mutant beta-catenin – cell-based, human colon tumor, dose response (AID 1045); type: functional;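 also: HCT116 colon tumor cells with beta catenin knocked out; cells exposed to compound for 60 hours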
[15] = Fluorescence-based cell-based high throughput dose response assay for inhibitors of the interaction of nucleotide-binding oligomerization domain containing 2 (NOD2) and the receptor-interacting serine-threonine kinase 2 (RIPK2).; type: functional; settings: Homo sapiens
Hexokinase HKDC1 = target: T5, Hexokinase HKDC1 (Homo sapiens, UniProt Q2TB90); test: inhibition of HKDC1 glucose phosphorylation – biochemical, W721R variant, dose response (AID 504729); type: functional
T5 sequence (Q2TB90 whole entry): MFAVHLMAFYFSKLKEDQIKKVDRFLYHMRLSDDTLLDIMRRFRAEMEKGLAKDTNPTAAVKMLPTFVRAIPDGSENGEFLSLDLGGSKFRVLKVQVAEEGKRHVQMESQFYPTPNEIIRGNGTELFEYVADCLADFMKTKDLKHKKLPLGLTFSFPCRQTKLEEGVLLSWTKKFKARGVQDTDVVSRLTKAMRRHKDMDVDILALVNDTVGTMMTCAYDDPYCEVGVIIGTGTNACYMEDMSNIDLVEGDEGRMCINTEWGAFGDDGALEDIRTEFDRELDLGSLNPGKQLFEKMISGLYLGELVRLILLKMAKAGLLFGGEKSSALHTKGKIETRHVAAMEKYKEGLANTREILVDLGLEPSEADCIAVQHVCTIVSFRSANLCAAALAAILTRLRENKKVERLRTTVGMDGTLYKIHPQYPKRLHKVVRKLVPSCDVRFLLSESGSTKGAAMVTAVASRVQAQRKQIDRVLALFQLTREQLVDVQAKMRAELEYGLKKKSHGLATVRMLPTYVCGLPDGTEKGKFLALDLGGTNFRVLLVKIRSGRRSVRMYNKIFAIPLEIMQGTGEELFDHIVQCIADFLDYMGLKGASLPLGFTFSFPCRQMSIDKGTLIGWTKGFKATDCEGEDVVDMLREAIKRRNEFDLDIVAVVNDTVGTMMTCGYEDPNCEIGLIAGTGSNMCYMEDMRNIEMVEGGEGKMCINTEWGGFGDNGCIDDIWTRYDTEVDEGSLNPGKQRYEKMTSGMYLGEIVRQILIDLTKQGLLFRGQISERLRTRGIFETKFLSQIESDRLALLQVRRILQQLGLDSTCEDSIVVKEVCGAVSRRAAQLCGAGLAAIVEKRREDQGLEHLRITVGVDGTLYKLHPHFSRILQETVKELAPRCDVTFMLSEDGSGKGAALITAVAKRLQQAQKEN

[16] = target: T6, Heat shock factor protein 1 (Mus musculus, UniProt P38532); test: decrease of HSF1-responsive luciferase luminescence – cell-based, NIH3T3, dose retest, confirmation (AID 2382); type: functional;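 also: NIH3T3 fibroblasts with HSF1-driven luciferase reporter stressed by proteasome inhibitor MG132; luminescence from HSF1-driven luciferase expression after 8 hours of MG132 stress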
T6 sequence (P38532 whole entry): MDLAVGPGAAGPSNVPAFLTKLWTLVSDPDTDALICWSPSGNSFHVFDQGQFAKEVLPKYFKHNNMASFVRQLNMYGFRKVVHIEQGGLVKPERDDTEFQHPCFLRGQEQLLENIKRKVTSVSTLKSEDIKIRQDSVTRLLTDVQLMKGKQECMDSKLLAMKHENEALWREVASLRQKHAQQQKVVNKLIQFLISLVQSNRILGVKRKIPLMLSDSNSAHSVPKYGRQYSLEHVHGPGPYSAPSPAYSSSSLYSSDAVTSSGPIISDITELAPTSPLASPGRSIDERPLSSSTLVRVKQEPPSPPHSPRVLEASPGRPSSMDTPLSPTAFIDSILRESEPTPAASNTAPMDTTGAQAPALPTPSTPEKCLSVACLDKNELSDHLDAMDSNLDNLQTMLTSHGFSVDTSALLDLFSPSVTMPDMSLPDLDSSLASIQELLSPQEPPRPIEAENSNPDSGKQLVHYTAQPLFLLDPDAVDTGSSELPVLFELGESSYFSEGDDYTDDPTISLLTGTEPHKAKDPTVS

BJ [17] = test: BJ-TERT-LT-ST fibroblast viability loss – cell-based, RAS-independent, luminescence, dose response (AID 1935); type: functional; settings: Homo sapiens;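 also: BJ fibroblasts immortalized with TERT plus LT and ST oncogenes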
BJ [18] = test: cells; type: functional, cell-based; settings: Homo sapiens
[19] = target: Tyrosine-protein phosphatase non-receptor type 7 (Homo sapiens, UniProt P35236); test: inhibition of hematopoietic tyrosine phosphatase HePTP – biochemical, set 2, SAR follow-up (AID 449736); type: functional
Tyrosine-protein phosphatase non-receptor type 7, sequence (P35236 whole entry): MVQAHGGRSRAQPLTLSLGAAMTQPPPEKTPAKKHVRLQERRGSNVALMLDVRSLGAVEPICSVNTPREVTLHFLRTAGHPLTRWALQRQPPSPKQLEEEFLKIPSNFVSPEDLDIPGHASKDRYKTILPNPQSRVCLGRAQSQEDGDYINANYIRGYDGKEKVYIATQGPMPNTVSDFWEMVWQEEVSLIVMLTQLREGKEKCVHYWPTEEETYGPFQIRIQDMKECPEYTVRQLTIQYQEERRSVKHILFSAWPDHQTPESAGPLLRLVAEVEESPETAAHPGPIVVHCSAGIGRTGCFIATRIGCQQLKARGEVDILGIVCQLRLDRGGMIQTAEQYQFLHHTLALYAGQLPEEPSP

T2 sequence (P98170 whole entry): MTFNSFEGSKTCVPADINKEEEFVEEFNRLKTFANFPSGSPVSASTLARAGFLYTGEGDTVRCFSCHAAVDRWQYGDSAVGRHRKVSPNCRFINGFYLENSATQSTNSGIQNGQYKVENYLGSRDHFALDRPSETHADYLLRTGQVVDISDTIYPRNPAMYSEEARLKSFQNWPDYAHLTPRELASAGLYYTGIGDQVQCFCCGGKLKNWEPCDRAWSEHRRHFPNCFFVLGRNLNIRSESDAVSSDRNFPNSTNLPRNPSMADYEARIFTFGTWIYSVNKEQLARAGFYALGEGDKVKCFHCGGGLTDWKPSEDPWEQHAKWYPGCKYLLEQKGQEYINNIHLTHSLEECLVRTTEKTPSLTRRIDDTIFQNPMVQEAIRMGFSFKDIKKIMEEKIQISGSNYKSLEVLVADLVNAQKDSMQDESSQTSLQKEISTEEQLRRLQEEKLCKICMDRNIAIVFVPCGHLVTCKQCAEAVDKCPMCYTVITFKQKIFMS
Alkaline phosphatase, placental type, sequence (P05187 whole entry): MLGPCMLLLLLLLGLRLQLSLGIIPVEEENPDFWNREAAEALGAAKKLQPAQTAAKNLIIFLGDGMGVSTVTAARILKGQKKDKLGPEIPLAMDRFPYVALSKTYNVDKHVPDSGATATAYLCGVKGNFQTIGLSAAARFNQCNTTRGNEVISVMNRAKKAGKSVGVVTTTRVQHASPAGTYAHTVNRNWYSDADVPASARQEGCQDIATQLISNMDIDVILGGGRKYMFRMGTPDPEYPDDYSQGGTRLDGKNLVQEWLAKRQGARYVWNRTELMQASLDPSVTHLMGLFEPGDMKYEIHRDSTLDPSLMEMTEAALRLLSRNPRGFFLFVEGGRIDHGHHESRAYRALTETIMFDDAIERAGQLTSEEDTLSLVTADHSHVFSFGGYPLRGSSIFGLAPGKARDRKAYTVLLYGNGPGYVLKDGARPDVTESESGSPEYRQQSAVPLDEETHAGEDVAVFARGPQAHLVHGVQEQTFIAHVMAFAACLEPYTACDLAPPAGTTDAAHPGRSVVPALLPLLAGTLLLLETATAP
G-protein coupled receptor 55, sequence (Q9Y2T6 whole entry): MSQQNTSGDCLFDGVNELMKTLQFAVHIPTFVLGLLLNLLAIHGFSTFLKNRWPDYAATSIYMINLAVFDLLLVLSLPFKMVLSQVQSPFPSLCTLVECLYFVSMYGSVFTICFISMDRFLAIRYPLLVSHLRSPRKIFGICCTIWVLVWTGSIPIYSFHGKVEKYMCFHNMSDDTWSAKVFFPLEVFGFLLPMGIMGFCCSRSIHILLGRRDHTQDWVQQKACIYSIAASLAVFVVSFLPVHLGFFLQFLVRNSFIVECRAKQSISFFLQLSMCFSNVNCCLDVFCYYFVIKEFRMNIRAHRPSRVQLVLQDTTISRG
Integrin alpha-4, sequence (P13612 whole entry): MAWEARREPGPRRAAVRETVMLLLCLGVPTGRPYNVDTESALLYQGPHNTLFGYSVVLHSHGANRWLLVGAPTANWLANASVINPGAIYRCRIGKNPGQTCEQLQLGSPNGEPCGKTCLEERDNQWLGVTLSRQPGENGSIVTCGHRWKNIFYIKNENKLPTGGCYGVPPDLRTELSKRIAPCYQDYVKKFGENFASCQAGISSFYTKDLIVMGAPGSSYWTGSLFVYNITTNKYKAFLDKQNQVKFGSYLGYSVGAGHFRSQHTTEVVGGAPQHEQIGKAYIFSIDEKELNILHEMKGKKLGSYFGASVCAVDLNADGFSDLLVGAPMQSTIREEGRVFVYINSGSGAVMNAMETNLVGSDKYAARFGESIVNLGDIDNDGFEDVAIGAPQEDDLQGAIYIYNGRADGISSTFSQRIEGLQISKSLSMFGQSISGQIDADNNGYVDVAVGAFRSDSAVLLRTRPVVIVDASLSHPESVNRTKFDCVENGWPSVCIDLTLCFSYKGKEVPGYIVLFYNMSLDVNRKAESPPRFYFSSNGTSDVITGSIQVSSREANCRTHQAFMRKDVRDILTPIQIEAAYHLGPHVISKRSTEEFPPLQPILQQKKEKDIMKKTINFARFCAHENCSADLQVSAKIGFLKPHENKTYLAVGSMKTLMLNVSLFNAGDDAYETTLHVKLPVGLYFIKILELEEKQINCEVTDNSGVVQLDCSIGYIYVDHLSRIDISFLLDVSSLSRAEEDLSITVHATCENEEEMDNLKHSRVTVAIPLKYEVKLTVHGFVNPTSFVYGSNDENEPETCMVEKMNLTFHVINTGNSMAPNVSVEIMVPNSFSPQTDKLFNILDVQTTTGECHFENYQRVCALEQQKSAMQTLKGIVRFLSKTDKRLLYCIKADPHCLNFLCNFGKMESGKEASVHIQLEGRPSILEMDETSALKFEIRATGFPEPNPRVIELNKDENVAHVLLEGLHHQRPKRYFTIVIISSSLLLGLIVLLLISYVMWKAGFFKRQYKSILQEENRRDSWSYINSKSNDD
Glyceraldehyde-3-phosphate dehydrogenase, sequence (P04406 whole entry): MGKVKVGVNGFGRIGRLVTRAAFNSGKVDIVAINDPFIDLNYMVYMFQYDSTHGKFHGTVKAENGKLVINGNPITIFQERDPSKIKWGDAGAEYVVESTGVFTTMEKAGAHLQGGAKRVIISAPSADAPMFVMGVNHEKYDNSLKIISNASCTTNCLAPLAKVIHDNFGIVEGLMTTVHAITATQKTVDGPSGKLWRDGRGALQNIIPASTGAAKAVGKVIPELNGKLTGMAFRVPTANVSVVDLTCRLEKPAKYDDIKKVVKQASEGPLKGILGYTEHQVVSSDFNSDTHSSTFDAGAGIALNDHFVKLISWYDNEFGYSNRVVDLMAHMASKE

Cc1ccccc1OCc1nc2c3cnn(C)c3ncn2n1
IC50 [1]: > 100 µM (inactive)
IC50 [2]: > 100 µM (inactive)
IC50 [3]: > 100 µM (not active)

COc1cccc(-c2cc(=O)c3cc(NC(=O)c4ccccc4)ccc3[nH]2)c1
IC50 [4]: > 80 µM (inactive)

Cn1ncc(Cl)c1C(=O)N1CCN(C(=O)c2ccco2)CC1
IC50 [5]: > 100 µM (inactive)
IC50 [6]: > 100 µM (not active)

O=C(NCCCN1CCOCC1)c1ccc(Br)cc1Br
IC50 [5]: > 100 µM (inactive)
IC50 [6]: > 100 µM (not active)

COC(=O)[C@@H]1[C@@H](C(=O)OC)C2(c3ccccc3-c3ccccc32)N(c2ccc(Cl)cc2)N1C#N
EC50 [7]: 4.84 µM (active)
EC50 (BJ [8]): 2.87 µM (inconclusive)
EC50 [9]: 7.77 µM (active)
EC50 (Protein RecA): 5.38 µM (active)
EC50 [10]: 2.24 µM (active)
EC50 [11]: > 32 µM (inactive)
EC50 [12]: 6.87 µM (active)
EC50 (Integrin alpha-4): > 49.2 µM (inactive)
AC50 [13]: > 120 µM (inactive)
EC50 [14]: 8.83 µM (active)
IC50 [15]: 1.77 µM (active)
IC50 (Hexokinase HKDC1): 20.4 µM (inactive)
EC50 [16]: 8.22 µM (inconclusive)
EC50 (BJ [17]): 5.02 µM (active)
EC50 (BJ [18]): 6.23 µM (active)

NS(=O)(=O)c1ccc(NC(=O)N2CCN(Cc3cccnc3)CC2)cc1
IC50 [19]: > 100 µM (inactive)

NS(=O)(=O)c1ccc(NC(=S)Nc2ccccc2)cc1
IC50 [19]: 25 µM (active)
